Measurements as given in ChEMBL document CHEMBL1201862, “PubChem BioAssay data set” (2004).
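1) Cells in 96-well plates. 2) Compound, 48 h, 5 concentrations. 3) Linear interpolation between surrounding doses. 4) Unreached endpoint = highest concentration. GI50 marks 50% less growth.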 Active and inactive are the calls of the source. Rule as the data show it: active = GI50 up to about 1.1 µM and inactive = higher.

What was measured:
Experiment in all cases: inhibition of tumour cell growth, NCI panel, 48 h
[1] = system: OVCAR-5
[2] = system: K562
[3] = system: UACC-257
[4] = system: HCT-15
[5] = system: OVCAR-3
[6] = system: UO-31
[7] = system: KM12
[8] = system: RXF 393
[9] = system: OVCAR-8
[10] = system: HOP-62
[11] = system: SN12C
[12] = system: NCI-H460
[13] = system: SK-MEL-28
[14] = system: OVCAR-4
[15] = system: HCT-116
[16] = system: CAKI-1
[17] = system: NCI-H522
[18] = system: SW-620
[19] = system: T47D
[20] = system: DU-145

| Compound | GI50 [1] | GI50 [2] | GI50 [3] | GI50 [4] | GI50 [5] | GI50 [6] | GI50 [7] | GI50 [8] | GI50 [9] | GI50 [10] | GI50 [11] | GI50 [12] | GI50 [13] | GI50 [14] | GI50 [15] | GI50 [16] | GI50 [17] | GI50 [18] | GI50 [19] | GI50 [20] |
| --- | --- | --- | --- | --- | --- | --- | --- | --- | --- | --- | --- | --- | --- | --- | --- | --- | --- | --- | --- | --- |
| CC(=O)NC1=C(OS(=O)(=O)c2ccc(C)cc2)CN(C)C1=O | 16.7 µM (inactive) | 3.61 µM (inactive) | 2.49 µM (inactive) | 2.96 µM | 2.74 µM (inactive) | 3.44 µM (inactive) | 3.92 µM (inactive) | 3.3 µM (inactive) | 4.22 µM (inactive) | 2.88 µM (inactive) | 4.37 µM (inactive) | 2.37 µM (inactive) | 10.3 µM (inactive) | 6.27 µM (inactive) | 3.15 µM (inactive) | 3.86 µM (inactive) | 2.82 µM (inactive) | 4.68 µM (inactive) | 2.12 µM (inactive) | 4.2 µM (inactive) |
| O=C1c2ccccc2C(=O)N1c1ccc(Cc2ccc(N3C(=O)c4ccccc4C3=O)cc2)cc1 | > 100 µM (inactive) | 0.853 µM (active) | > 100 µM (inactive) | > 100 µM | > 21.9 µM (inactive) | > 100 µM (inactive) | > 100 µM (inactive) | > 100 µM (inactive) | > 100 µM (inactive) | 49.9 µM (inactive) | > 100 µM (inactive) | > 100 µM (inactive) | > 100 µM (inactive) | > 100 µM (inactive) | > 100 µM (inactive) | > 100 µM (inactive) | > 100 µM (inactive) | > 100 µM (inactive) | > 100 µM (inactive) | > 100 µM (inactive) |
| CCOC(=O)c1cc2c(ccc3cc(C(=O)OCC)[nH]c32)[nH]1 | > 100 µM (inactive) | 97.1 µM (inactive) | > 100 µM (inactive) | 33.3 µM | 87.1 µM (inactive) | 48.6 µM (inactive) | 95.1 µM (inactive) | 15.8 µM (inactive) | – | 21.7 µM (inactive) | 25.9 µM (inactive) | 43.9 µM (inactive) | 8.36 µM (inactive) | 11.4 µM (inactive) | 41.9 µM (inactive) | 29 µM (inactive) | 67.1 µM (inactive) | 25.8 µM (inactive) | 38 µM (inactive) | 35.2 µM (inactive) |
| C=C1c2nc3ccccc3n2C=C(c2ccc(OC)cc2)N1c1ccc(OCCN2CCCCC2)cc1 | > 74.1 µM (inactive) | 4.83 µM (inactive) | 1.49 µM (inactive) | 4.74 µM | 19.9 µM (inactive) | 8.22 µM (inactive) | 8 µM (inactive) | 27.6 µM (inactive) | 7.76 µM (inactive) | 35.6 µM (inactive) | 27.1 µM (inactive) | 2.47 µM (inactive) | 31.2 µM (inactive) | 11.6 µM (inactive) | 5.83 µM (inactive) | 13.4 µM (inactive) | > 100 µM (inactive) | 6.27 µM (inactive) | 26.6 µM (inactive) | 13.1 µM (inactive) |
| CCN(CC)C(=S)SS(=O)(=O)c1cccc(N)c1 | > 100 µM (inactive) | > 100 µM (inactive) | > 100 µM (inactive) | > 100 µM | > 100 µM (inactive) | > 100 µM (inactive) | > 100 µM (inactive) | > 100 µM (inactive) | > 100 µM (inactive) | > 100 µM (inactive) | > 100 µM (inactive) | > 100 µM (inactive) | > 100 µM (inactive) | > 100 µM (inactive) | > 100 µM (inactive) | > 100 µM (inactive) | > 100 µM (inactive) | > 100 µM (inactive) | > 100 µM (inactive) | > 100 µM (inactive) |
| COc1cc(C[C@@]2(C)[C@@H]3CCC[C@H](CO)[C@@]3(C)CC[C@@H]2C)c(Cl)c(OC)c1 | 18.3 µM (inactive) | 16.3 µM (inactive) | 18.7 µM (inactive) | 16.7 µM | 15.3 µM (inactive) | 16.6 µM (inactive) | 18.2 µM (inactive) | 11.6 µM (inactive) | 16 µM (inactive) | 17.1 µM (inactive) | 15.8 µM (inactive) | 16.8 µM (inactive) | 26.2 µM (inactive) | 15.8 µM (inactive) | 12.2 µM (inactive) | 16.2 µM (inactive) | 14.7 µM (inactive) | 29.2 µM (inactive) | 9.53 µM (inactive) | 16.4 µM (inactive) |
| CCCCN1C(=O)CS/C1=N/Nc1nc2c([nH]1)c(=O)n(C)c(=O)n2C | 14.5 µM (inactive) | 30.5 µM (inactive) | > 100 µM (inactive) | > 100 µM | 64.1 µM (inactive) | > 100 µM (inactive) | 6.35 µM (inactive) | > 100 µM (inactive) | – | 4.62 µM (inactive) | 33.6 µM (inactive) | 13.7 µM (inactive) | 20 µM (inactive) | 19.5 µM (inactive) | 15.2 µM (inactive) | > 100 µM (inactive) | 61.7 µM (inactive) | – | 34.2 µM (inactive) | 19.2 µM (inactive) |
